Data as given in article PMC7994753, “The Availability of the α7-Nicotinic Acetylcholine Receptor in Early Identification of Vulnerable Atherosclerotic Plaques: A Study Using a Novel ^18F-Label Radioligand PET” (Frontiers in Bioengineering and Biotechnology, 2021).

Experiments:
α7nAChR = target: α7nAChR; parameters: method as in Wang S. et al., 2018; conditions: previous experiment, ref Wang S. et al., 2018; cited from earlier work
[1] = target: T1, α7nAChR in atherosclerotic plaques (Mus musculus, UniProt P49582); experiment: Micro-PET/CT imaging of carotid atherosclerotic plaques; type: in vivo, ApoE-/-mice and normal mice
T1 construct: superimposed on the high uptake region in carotid arteries of ApoE-/-mice; from tissue; host or cells: carotid arteries / atherosclerotic plaques of living ApoE-/- mice and normal mice
Excerpt: ApoE-/-mice (n = 6, weight 25–33 g) and normal mice (n = 6, weight 25–33g) were purchased from Qingzilan Technology Co., Ltd (Nanjing, China). After 1 week of feeding with common feed, the selected ApoE-/-mice were fed with western diet, containing 21% fat and 0.15% cholesterol content, with a high-fat/high-cholesterol content for 9–10 weeks and subjected to micro-PET/CT imaging. The tissues were used for red staining and immunohistochemistry experiments. The normal mice served as controls for micro-PET/CT imaging and their tissues for immunohistochemistry. All mice were kept in a temperature-controlled environment with a 12 h light/dark cycle with free access to food and water. Animal care and experimental procedures were conducted in compliance with the Helsinki Declaration and approved by Fuwai hospital animal care committee.
When the animal models were 10 and 11 weeks old, the micro-PET/CT imaging were conducted. An Inveon small animal PET/CT scanner (Siemens,Germany) was used to perform the scans. A total volume of 5.56 MBq (150 μCi) of [^18F]YLF-DW was injected into six ApoE-/-mice and six normal mice by the tail veins, and the animal models were anesthetized with 2% isoflurane through inhalation. We performed PET/CT dynamic scanning. After screening, the acquisition was performed at 1 h after tail vein injections. The micro-PET/CT was initially performed with the following parameters: energy peak, 511 keV; window width, 3.5 E0 SUV-bw; resolution, 0.775 mm/pixel; and matrix, 128 × 128. Each mouse required a 15-min acquisition and the computed tomography (CT) was performed after PET scanning in the same bed position using the following parameters: frame resolution, 256 × 512; tube voltage, 80 kVp; current, 0.5 mA; and exposure time, 500 ms/frame.
The images were reconstructed by two-dimensional-ordered subsets expectation maximization. The three-dimensional regions of interest (ROIs) were superimposed on the high uptake region in carotid arteries of ApoE-/-mice. The tissue density was presumed as 1 g/ml, and % ID/g was calculated based on the dose injected into the mice.

[2] = parameters: method as in Wang S. et al., 2018; conditions: ref Wang S. et al., 2018, cited from earlier work
5-HT3 = target: T2, 5-HT3 (Mus musculus, UniProt P23979); experiment: Blocking experiment with ondansetron pre-injection, brain uptake; type: in vivo; conditions: ondansetron 2 mg/kg pre-injected 10 min before tracer; CD-1 mice brain, 60 min after injection
T2 construct: from tissue; host or cells: brain of living CD-1 mice
T2 sequence (P23979 24-489): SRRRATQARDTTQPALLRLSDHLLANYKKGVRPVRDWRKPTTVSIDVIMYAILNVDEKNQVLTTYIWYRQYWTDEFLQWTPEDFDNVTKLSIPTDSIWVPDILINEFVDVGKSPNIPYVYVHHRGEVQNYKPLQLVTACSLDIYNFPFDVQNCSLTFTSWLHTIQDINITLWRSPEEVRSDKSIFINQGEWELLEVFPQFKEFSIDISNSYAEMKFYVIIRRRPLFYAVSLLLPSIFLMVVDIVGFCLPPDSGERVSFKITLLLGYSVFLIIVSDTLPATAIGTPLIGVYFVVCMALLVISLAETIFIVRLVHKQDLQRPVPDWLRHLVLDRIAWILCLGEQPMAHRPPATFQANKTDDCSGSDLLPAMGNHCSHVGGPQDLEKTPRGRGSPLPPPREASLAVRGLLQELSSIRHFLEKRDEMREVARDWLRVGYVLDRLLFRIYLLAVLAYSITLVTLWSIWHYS
Method: (§1) To further determine the specific binding of [^18F]YLF-DW to α7nAChR over other similar receptors, blocking experiments were carried out by pre-subcutaneous injection of blocking agents. α4β2nAChR, a heteromeric nAChR subtype widely expressed and 5-HT3, a receptor sharing high sequence homology with α7nAChR, were the most likely receptors to cross binding with α7nAChR ligands. We used the brain tissues of CD-1 mice to do the blocking experiment. Cytisine (1 mg/kg, a selective partial agonist of α4β2nAChR) and ondansetron (2 mg/kg, a selective antagonist of 5-HT3) were pre-injected 5 and 10 min prior to the intravenous injection of [^18F]YLF-DW, respectively. The CD-1 mice were sacrificed at 60 min after the [^18F]YLF-DW injection, and the brain tissues were harvested.

α4β2nAChR = target: T3, α4β2nAChR (Mus musculus, UniProt O70174+Q9ERK7); experiment: Blocking experiment with cytisine pre-injection, brain uptake; type: in vivo; conditions: cytisine 1 mg/kg pre-injected 5 min before tracer; CD-1 mice brain, 60 min after injection
T3 construct: from tissue; host or cells: brain of living CD-1 mice
Method: as §1

T1 sequence (P49582 23-502): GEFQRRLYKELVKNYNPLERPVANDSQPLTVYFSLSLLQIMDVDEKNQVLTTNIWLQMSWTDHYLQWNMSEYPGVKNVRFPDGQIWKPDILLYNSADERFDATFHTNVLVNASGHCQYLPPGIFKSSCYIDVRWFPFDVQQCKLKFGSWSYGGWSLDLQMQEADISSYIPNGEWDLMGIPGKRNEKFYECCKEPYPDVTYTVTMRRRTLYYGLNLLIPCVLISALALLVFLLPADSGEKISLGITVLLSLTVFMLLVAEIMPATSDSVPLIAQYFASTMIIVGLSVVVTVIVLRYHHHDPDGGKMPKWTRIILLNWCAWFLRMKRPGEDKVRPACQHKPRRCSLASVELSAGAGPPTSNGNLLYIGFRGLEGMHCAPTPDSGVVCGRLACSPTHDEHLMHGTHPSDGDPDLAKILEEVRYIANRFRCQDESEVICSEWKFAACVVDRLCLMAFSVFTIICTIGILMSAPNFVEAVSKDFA
T3 sequence (O70174 31-629): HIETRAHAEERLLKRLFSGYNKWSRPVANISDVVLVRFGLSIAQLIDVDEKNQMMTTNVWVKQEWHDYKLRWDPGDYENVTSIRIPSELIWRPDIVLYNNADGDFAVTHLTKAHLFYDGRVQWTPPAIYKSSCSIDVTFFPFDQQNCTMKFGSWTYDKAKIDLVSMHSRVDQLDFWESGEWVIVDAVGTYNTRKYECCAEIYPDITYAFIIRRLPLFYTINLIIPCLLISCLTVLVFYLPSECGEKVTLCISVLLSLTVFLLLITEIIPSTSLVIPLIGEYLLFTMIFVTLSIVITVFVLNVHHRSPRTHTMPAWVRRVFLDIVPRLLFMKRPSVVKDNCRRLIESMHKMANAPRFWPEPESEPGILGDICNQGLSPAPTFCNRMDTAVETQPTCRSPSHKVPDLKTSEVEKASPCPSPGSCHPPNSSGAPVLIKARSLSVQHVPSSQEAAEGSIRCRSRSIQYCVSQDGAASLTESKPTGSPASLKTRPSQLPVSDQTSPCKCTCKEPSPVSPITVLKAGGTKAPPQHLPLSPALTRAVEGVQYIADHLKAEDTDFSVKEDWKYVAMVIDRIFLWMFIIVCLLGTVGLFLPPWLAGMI
T3 sequence (Q9ERK7 26-501): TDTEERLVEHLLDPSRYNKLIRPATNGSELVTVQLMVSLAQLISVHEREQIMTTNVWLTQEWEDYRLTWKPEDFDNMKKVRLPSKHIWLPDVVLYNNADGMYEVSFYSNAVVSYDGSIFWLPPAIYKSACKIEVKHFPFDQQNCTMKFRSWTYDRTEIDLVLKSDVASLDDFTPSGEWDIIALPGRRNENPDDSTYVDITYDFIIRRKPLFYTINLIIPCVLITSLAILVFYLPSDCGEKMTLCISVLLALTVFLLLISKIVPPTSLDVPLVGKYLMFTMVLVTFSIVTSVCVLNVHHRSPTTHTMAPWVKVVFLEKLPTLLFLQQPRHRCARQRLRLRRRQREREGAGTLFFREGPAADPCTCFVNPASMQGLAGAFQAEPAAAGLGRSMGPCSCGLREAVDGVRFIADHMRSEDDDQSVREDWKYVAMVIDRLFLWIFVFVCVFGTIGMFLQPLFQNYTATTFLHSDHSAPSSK

Structure (SMILES): O=C1c2cc(N3CCN4CCC3CC4)ccc2-c2cccc([18F])c21 [[^18F]YLF-DW]
- Ki (α7nAChR): 2.98 ± 1.41 nM
- carotid artery plaque imaging signal ([1]; ApoE-/-mouse, 5.56 MBq i.v., acquisition 1 h after injection): obvious in the carotid artery
- early detection of carotid plaques compared with traditional imaging agent ([1]; ApoE-/-mouse, comparison with [^18F]FDG): better than [^18F]FDG
- carotid artery imaging signal ([1]; normal control mice, 5.56 MBq i.v., acquisition 1 h after injection): no signal was observed
- initial brain uptake ([2]; 15 min post-injection, Kunming mouse): 11.60 ± 0.14 %ID/g
- brain/blood value ([2]; 30 min post-injection, Kunming mouse): 9.57
- clearance from brain ([2]; Kunming mouse brains): fast clearance
- difference in radioligand uptake, blocked group vs control group (5-HT3): no significant difference
- difference in radioligand uptake, blocked group vs control group (α4β2nAChR): no significant difference
